Data on 18 compounds can be found in US20240360134A1, “PYRAZOLOPYRIMIDINES AND THEIR USES AS PDGFR INHIBITORS” (priority 2021, published 2024).

Experiment [1] addresses Tb-labeled inactive PDGFRβ (Homo sapiens (Human), UniProt P09619). Put plainly: biochemical. It counts as binding.
A further experiment has as its target PDGFRβ (Rattus norvegicus (Rat), UniProt Q05030). The experiment in a line: PDGFRβ Cellular Assay (PDGFRb P-Y751 HTRF, PDGF-BB stimulated A10 cells). Format: cell-based. An outline of the steps: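 Rat A10 cells plated overnight were treated with compound for 3 h, stimulated with rat PDGF-BB (working stock 100 ng/mL in 10% FBS medium) for 10 min, then lysed.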
In general terms: TR-FRET usually uses a lanthanide donor and a delayed reading to cut background.

The next experiment addresses VEGFR2, unphosphorylated (Homo sapiens (Human), UniProt P35968). Put plainly: VEGFR ADP GLO assay. Format: biochemical. To be noted: 5 nM VEGFR2, 1.2 mM ATP, 1 mg/mL Srctide, 180 min. In short, it runs like this: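 Luminescent ADP detection after a 180-min room-temperature reaction of srctide plus ATP (2 mg/mL and 2.4 mM in 2× mix) in pH 7.5 HEPES buffer with DTT, Pluronic and ovalbumin. Compounds, 11 points from 10 µM, first pre-incubated 30 min with enzyme (2× mix 10 nM). IC50s fitted after scaling between DMSO and 1 µM TAK-593 controls.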
Background: In ADP-Glo the light output rises with the ADP produced.

Experiment [2] has as its target His6-TEV-PDGFRβ (557-1016) (Homo sapiens (Human), UniProt P09619). The experiment in a line: PDGFRβ HTRF Assay. Format: biochemical.
[3] abbreviates: A10 cells, 3 hours compound, 15 ng/mL PDGFbb for 10 minutes, read-out: PDGFR Cellular IC50.
Setting [4] is: 800 μM ATP, 0.5 μM TK-substrate biotin peptide, 30 min pre-incubation, 3 hours reaction, read-out: PDGFR HTRF IC50.

Where two headings read alike, the source gives them in different places. Bounds are passed on as bounds.

VEGFR2, unphosphorylated, sequence (P35968 whole entry, looked up): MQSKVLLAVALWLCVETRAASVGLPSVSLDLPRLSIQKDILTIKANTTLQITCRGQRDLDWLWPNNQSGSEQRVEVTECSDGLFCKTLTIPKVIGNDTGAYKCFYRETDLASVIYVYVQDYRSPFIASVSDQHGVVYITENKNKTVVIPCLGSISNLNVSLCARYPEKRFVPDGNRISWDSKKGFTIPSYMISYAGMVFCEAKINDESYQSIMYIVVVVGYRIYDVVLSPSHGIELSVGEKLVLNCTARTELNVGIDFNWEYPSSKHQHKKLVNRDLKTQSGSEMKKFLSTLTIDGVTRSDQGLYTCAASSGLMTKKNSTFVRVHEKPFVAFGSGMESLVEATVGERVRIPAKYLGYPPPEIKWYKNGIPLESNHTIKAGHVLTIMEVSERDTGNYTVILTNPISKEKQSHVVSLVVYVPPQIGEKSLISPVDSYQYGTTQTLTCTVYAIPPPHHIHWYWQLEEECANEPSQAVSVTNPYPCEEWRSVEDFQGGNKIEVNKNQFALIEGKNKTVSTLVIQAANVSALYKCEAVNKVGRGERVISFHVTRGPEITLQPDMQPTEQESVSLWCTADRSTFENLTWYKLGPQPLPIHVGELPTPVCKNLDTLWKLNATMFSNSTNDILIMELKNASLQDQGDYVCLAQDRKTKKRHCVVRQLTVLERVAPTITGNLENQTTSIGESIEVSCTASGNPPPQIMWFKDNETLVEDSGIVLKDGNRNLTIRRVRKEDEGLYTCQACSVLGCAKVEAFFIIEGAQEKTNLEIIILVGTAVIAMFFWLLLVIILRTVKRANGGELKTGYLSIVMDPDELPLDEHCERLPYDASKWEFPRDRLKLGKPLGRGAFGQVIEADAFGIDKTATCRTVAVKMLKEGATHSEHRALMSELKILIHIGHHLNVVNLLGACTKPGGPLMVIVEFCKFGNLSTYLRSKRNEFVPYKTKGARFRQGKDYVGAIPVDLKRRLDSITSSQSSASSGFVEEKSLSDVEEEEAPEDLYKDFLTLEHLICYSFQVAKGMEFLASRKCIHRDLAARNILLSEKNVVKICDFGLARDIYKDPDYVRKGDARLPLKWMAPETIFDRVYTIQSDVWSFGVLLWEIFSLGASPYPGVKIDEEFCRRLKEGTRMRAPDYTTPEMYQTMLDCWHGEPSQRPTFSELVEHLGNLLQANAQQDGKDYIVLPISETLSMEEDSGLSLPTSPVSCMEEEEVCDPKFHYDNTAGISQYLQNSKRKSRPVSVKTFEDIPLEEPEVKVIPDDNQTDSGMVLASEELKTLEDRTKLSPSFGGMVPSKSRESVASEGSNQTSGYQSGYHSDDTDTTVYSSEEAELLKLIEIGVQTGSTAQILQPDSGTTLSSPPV
Tb-labeled inactive PDGFRβ, sequence (P09619 whole entry, looked up): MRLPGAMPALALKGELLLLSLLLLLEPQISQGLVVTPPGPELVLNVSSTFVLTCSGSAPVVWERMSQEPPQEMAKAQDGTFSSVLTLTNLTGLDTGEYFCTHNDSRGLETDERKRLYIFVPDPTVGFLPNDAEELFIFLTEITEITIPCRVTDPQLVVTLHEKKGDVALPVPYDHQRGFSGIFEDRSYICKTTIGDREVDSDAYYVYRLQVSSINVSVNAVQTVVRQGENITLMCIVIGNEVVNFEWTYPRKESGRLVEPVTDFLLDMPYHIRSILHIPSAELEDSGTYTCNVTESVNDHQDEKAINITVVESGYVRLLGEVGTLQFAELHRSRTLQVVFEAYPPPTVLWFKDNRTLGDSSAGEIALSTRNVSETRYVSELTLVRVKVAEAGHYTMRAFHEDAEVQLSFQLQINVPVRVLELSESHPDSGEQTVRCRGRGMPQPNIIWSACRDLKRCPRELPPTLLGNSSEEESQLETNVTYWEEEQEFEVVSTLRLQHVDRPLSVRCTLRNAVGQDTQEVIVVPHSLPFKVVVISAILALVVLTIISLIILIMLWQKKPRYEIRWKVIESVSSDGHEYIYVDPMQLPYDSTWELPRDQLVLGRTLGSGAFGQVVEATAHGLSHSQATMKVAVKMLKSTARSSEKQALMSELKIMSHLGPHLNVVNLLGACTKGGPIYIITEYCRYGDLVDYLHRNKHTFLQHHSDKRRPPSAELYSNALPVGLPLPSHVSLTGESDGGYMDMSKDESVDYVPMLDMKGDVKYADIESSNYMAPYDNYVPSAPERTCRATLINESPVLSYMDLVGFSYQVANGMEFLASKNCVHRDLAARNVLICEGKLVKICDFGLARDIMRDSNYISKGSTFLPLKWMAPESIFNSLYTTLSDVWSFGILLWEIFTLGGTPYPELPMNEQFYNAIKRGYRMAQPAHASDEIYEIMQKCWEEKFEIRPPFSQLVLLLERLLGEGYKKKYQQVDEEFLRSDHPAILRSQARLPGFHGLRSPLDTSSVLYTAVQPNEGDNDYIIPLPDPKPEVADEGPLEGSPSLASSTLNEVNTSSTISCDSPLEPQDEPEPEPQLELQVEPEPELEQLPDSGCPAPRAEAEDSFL
His6-TEV-PDGFRβ (557-1016), sequence (P09619 whole entry, looked up): as above
PDGFRβ, sequence (Q05030 whole entry, looked up): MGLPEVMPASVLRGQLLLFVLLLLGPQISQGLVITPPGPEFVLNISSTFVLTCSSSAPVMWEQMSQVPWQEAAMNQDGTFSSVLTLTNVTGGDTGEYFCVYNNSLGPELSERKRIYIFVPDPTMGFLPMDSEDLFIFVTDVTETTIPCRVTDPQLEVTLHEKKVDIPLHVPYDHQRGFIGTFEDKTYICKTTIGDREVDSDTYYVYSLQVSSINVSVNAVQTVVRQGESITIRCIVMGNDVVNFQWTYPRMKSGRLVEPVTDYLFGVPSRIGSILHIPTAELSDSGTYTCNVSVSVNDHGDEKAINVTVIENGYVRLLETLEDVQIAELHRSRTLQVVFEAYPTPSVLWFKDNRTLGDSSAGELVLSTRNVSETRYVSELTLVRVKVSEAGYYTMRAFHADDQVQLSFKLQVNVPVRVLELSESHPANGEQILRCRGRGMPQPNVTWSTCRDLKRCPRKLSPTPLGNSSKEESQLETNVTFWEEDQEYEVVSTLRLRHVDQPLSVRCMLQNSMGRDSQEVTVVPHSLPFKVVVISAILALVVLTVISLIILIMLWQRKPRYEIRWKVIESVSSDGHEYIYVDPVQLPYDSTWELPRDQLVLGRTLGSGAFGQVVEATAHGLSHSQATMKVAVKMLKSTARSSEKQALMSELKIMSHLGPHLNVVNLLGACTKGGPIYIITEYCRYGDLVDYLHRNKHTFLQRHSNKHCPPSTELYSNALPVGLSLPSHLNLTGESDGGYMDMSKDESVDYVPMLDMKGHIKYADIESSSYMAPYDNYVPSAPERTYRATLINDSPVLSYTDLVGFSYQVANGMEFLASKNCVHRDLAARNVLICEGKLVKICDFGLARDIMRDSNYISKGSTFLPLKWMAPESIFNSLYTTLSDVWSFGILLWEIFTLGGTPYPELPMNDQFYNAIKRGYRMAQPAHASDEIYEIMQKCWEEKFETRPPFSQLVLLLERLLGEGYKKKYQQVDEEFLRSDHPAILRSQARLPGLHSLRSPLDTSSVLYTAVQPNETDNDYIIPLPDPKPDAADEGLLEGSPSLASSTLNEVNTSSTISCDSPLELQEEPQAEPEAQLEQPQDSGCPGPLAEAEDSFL

Regarding `Cc1ncc(NC(=O)CN2CCC[C@@H]2C)cc1Nc1nn(C)c2nc(Nc3cn(C)cn3)ncc12` [Example 142, (S)—N-(6-methyl-5-((1-methyl-6-((1-methyl-1H-imidazol-4-yl)amino)-1H-pyrazolo[3,4-d]pyrimidin-3-yl)amino)pyridin-3-yl)-2-(2-methylpyrrolidin-1-yl)acetamide], the concentration for half-maximal inhibition (IC50) (as a rule, the concentration that inhibits the measured activity by half) in experiment [1] (read-out: PDGFR Lantha IC50) is 107 nM; on PDGFRβ (setting [3]) it was 13.4 nM; against VEGFR2, unphosphorylated, more than 7500 nM; in experiment [2] (setting [4]), 4.66 nM.
In the case of `Cc1ccc(C(=O)NCCN2CCC(F)(F)CC2)cc1Nc1nn(C)c2nc(Nc3cnn(C)c3)ncc12` [Example 118, N-(2-(4,4-difluoropiperidin-1-yl)ethyl)-4-methyl-3-((1-methyl-6-((1-methyl-1H-pyrazol-4-yl)amino)-1H-pyrazolo[3,4-d]pyrimidin-3-yl)amino)benzamide], the IC50 was 1.8 nM in experiment [1] (read-out: PDGFR Lantha IC50); 5.4 nM at PDGFRβ (setting [3]); 76 nM on VEGFR2, unphosphorylated; 0.29 nM in experiment [2] (setting [4]).
Take `Cc1ncc(C(=O)NCCN2CCCC2(C)C)cc1Nc1nn(C)c2nc(Nc3ccnc(N4CCN(CCO)CC4)c3)ncc12` [Example 103, N-(2-(2,2-dimethylpyrrolidin-1-yl)ethyl)-5-((6-((2-(4-(2-hydroxyethyl)piperazin-1-yl)pyridin-4-yl)amino)-1-methyl-1H-pyrazolo[3,4-d]pyrimidin-3-yl)amino)-6-methylnicotinamide]: the IC50 in experiment [1] (read-out: PDGFR Lantha IC50) is 4.8 nM; on PDGFRβ (setting [3]), 443 nM; against VEGFR2, unphosphorylated, more than 7500 nM; in experiment [2] (setting [4]) it was 0.55 nM.
Consider `CC[C@@H]1CN(CCNC(=O)c2cnc(C)c(Nc3nn(C)c4nc(Nc5ccnc(N6CCC(CCO)CC6)c5)ncc34)c2)CCO1` [Example 113, (R)—N-(2-(2-ethylmorpholino)ethyl)-5-((6-((2-(4-(2-hydroxyethyl)piperidin-1-yl)pyridin-4-yl)amino)-1-methyl-1H-pyrazolo[3,4-d]pyrimidin-3-yl)amino)-6-methylnicotinamide], for which the IC50 is 6.8 nM in experiment [1] (read-out: PDGFR Lantha IC50); 116 nM at PDGFRβ (setting [3]); more than 7500 nM against VEGFR2, unphosphorylated; 0.94 nM in experiment [2] (setting [4]).
Regarding `Cn1nc(Nc2cc(C(=O)NCCN3CCCC3(C)C)ccc2F)c2cnc(Nc3ccncn3)nc21` [Example 52, N-(2-(2,2-dimethylpyrrolidin-1-yl)ethyl)-4-fluoro-3-((1-methyl-6-(pyrimidin-4-ylamino)-1H-pyrazolo[3,4-d]pyrimidin-3-yl)amino)benzamide], the IC50 is 160 nM in experiment [1] (read-out: PDGFR Lantha IC50); 67 nM at PDGFRβ (setting [3]); more than 2500 nM at VEGFR2, unphosphorylated; 4.71 nM in experiment [2] (setting [4]).
Turning to `CC[C@H]1COCCN1CCNC(=O)c1cnc(C)c(Nc2nn(C)c3nc(Nc4cnn(C)c4)ncc23)c1` [Example 81, (S)—N-(2-(3-ethylmorpholino)ethyl)-6-methyl-5-((1-methyl-6-((1-methyl-1H-pyrazol-4-yl)amino)-1H-pyrazolo[3,4-d]pyrimidin-3-yl)amino)nicotinamide], the concentration for half-maximal inhibition (IC50) in experiment [1] came to 2.6 nM; at PDGFRβ, 21.1 nM; against VEGFR2, unphosphorylated, 2500 nM; in experiment [2], 0.42 nM.
Turning to `Cc1ncc(C(=O)NCCN2CCCCC23CC3)cc1Nc1nn(C)c2nc(Nc3cnn(C)c3)ncc12` [Example 150, N-(2-(4-azaspiro[2.5]octan-4-yl)ethyl)-6-methyl-5-((1-methyl-6-((1-methyl-1H-pyrazol-4-yl)amino)-1H-pyrazolo[3,4-d]pyrimidin-3-yl)amino)nicotinamide], the IC50 in experiment [1] (read-out: PDGFR Lantha IC50) amounted to 1.2 nM; at PDGFRβ (setting [3]), 4.3 nM; against VEGFR2, unphosphorylated, 1550 nM; in experiment [2] (setting [4]), 0.3 nM.
Regarding `Cc1ncc(C(=O)NCCN2CCCC2(C)C)cc1Nc1nn(C)c2nc(Nc3ccc(=O)n(C)n3)ncc12` [Example 31, N-(2-(2,2-dimethylpyrrolidin-1-yl)ethyl)-6-methyl-5-((1-methyl-6-((1-methyl-6-oxo-1,6-dihydropyridazin-3-yl)amino)-1H-pyrazolo[3,4-d]pyrimidin-3-yl)amino)nicotinamide], the concentration for half-maximal inhibition (IC50) in experiment [1] (read-out: PDGFR Lantha IC50) is 60.3 nM; at PDGFRβ (setting [3]), 390 nM; against VEGFR2, unphosphorylated, more than 7500 nM; in experiment [2] (setting [4]), 2.5 nM.
As for `Cc1ncc(C(=O)NCCN2CCCC2(C)C)cc1Nc1nn(C)c2nc(Nc3ccc(=O)[nH]c3)ncc12` [Example 35, N-(2-(2,2-dimethylpyrrolidin-1-yl)ethyl)-6-methyl-5-((1-methyl-6-((6-oxo-1,6-dihydropyridin-3-yl)amino)-1H-pyrazolo[3,4-d]pyrimidin-3-yl)amino)nicotinamide], the IC50 in experiment [1] (read-out: PDGFR Lantha IC50) is 4.7 nM; at PDGFRβ (setting [3]) it was 1650 nM; on VEGFR2, unphosphorylated, more than 7500 nM; in experiment [2] (setting [4]), 0.68 nM.
Consider `Cc1ncc(C(=O)NCCN2[C@H](C)CCC[C@@H]2C)cc1Nc1nn(C)c2nc(Nc3cncnc3)ncc12` [Example 14, N-(2-((2S,6R)-2,6-dimethylpiperidin-1-yl)ethyl)-6-methyl-5-((1-methyl-6-(pyrimidin-5-ylamino)-1H-pyrazolo[3,4-d]pyrimidin-3-yl)amino)nicotinamide], for which the half-inhibitory concentration (IC50) was 8.5 nM in experiment [1] (read-out: PDGFR Lantha IC50); 109 nM at PDGFRβ (setting [3]); approximately 7130 nM at VEGFR2, unphosphorylated; 0.89 nM in experiment [2] (setting [4]).
Consider `Cc1ncc(C(=O)NCCN2CCCC2(C)C)cc1Nc1nn(C)c2nc(Nc3ccc(=O)[nH]n3)ncc12` [Example 36, N-(2-(2,2-dimethylpyrrolidin-1-yl)ethyl)-6-methyl-5-((1-methyl-6-((6-oxo-1,6-dihydropyridazin-3-yl)amino)-1H-pyrazolo[3,4-d]pyrimidin-3-yl)amino) nicotinamide], for which the IC50 is 88.3 nM in experiment [1] (read-out: PDGFR Lantha IC50); more than 3000 nM at PDGFRβ (setting [3]); more than 7500 nM against VEGFR2, unphosphorylated; 4.11 nM in experiment [2] (setting [4]).
For `Cc1cc(C(=O)NCCN2CCC[C@@H]2C)sc1Nc1nn(C)c2nc(Nc3cnn(C)c3)ncc12` [Example 60, (S)-4-methyl-5-((1-methyl-6-((1-methyl-1H-pyrazol-4-yl)amino)-1H-pyrazolo[3,4-d]pyrimidin-3-yl)amino)-N-(2-(2-methylpyrrolidin-1-yl)ethyl)thiophene-2-carboxamide], the IC50 in experiment [1] (read-out: PDGFR Lantha IC50) is 9.7 nM; at PDGFRβ (setting [3]), 67.2 nM; at VEGFR2, unphosphorylated it was more than 7500 nM; in experiment [2] (setting [4]) it was 0.65 nM.
As for `Cc1ncc(C(=O)NCCN2CCCC[C@H]2C)cc1Nc1nn(C)c2nc(Nc3cnn(C)c3)ncc12` [Example 82, (R)-6-methyl-5-((1-methyl-6-((1-methyl-1H-pyrazol-4-yl)amino)-1H-pyrazolo[3,4-d]pyrimidin-3-yl)amino)-N-(2-(2-methylpiperidin-1-yl)ethyl)nicotinamide], the IC50 in experiment [1] is 1.7 nM; on PDGFRβ, 20.2 nM; at VEGFR2, unphosphorylated, more than 7500 nM; in experiment [2], 0.18 nM.
Consider `Cc1ncc(C(=O)NCCN2CCCC2(C)C)cc1Nc1nn(C)c2nc(Nc3cnn4c3OCCC4)ncc12` [Example 163, 5-((6-((6,7-dihydro-5H-pyrazolo[5,1-b][1,3]oxazin-3-yl)amino)-1-methyl-1H-pyrazolo[3,4-d]pyrimidin-3-yl)amino)-N-(2-(2,2-dimethylpyrrolidin-1-yl)ethyl)-6-methylnicotinamide], for which the IC50 is 805 nM in experiment [1] (read-out: PDGFR Lantha IC50); more than 2000 nM on PDGFRβ (setting [3]); more than 7500 nM against VEGFR2, unphosphorylated; 86.4 nM in experiment [2] (setting [4]).
Taken in the same sequence, the figures for `Cc1ncc(C(=O)NCCN2C3CCCC2CCC3)cc1Nc1nn(C)c2nc(Nc3cnn(C)c3)ncc12` [Example 89, N-(2-(9-azabicyclo[3.3.1]nonan-9-yl)ethyl)-6-methyl-5-((1-methyl-6-((1-methyl-1H-pyrazol-4-yl)amino)-1H-pyrazolo[3,4-d]pyrimidin-3-yl)amino)nicotinamide] were 2.8 nM, 33.3 nM, 4090 nM and 0.33 nM.
In the case of `Cn1cc(Nc2ncc3c(Nc4cc(C(=O)NCCN5CCCC5(C)C)ccc4F)nn(C)c3n2)cn1` [Example 121, N-(2-(2,2-dimethylpyrrolidin-1-yl)ethyl)-4-fluoro-3-((1-methyl-6-((1-methyl-1H-pyrazol-4-yl)amino)-1H-pyrazolo[3,4-d]pyrimidin-3-yl)amino)benzamide], the half-inhibitory concentration (IC50) in experiment [1] (read-out: PDGFR Lantha IC50) is 1.3 nM; on PDGFRβ (setting [3]), 3.6 nM; against VEGFR2, unphosphorylated it was more than 7500 nM; in experiment [2] (setting [4]), 0.2 nM.
`Cc1ncc(C(=O)NCCN2CCCC23CC3)cc1Nc1nn(C)c2nc(Nc3cncnc3)ncc12` [Example 57, N-(2-(4-azaspiro[2.4]heptan-4-yl)ethyl)-6-methyl-5-((1-methyl-6-(pyrimidin-5-ylamino)-1H-pyrazolo[3,4-d]pyrimidin-3-yl)amino)nicotinamide]: the 50% inhibitory concentration (IC50) in experiment [1] (read-out: PDGFR Lantha IC50) was 5.6 nM; on PDGFRβ (setting [3]), 15.6 nM; on VEGFR2, unphosphorylated, more than 7500 nM; in experiment [2] (setting [4]), 0.97 nM.
As to `Cc1ncc(C(=O)NCCN2C[C@H](C)O[C@@H](C)C2)cc1Nc1nn(C)c2nc(Nc3ccnc(N4CCC(CCO)CC4)c3)ncc12` [Example 112, N-(2-((2S,6S)-2,6-dimethylmorpholino)ethyl)-5-((6-((2-(4-(2-hydroxyethyl)piperidin-1-yl)pyridin-4-yl)amino)-1-methyl-1H-pyrazolo[3,4-d]pyrimidin-3-yl)amino)-6-methylnicotinamide], the 50% inhibitory concentration (IC50) in experiment [1] (read-out: PDGFR Lantha IC50) was 4.5 nM; on PDGFRβ (setting [3]), 84.4 nM; against VEGFR2, unphosphorylated it was more than 7500 nM; in experiment [2] (setting [4]), 0.57 nM.
